Results as given in patent US20250368666A1, “INDAZOLE COMPOUNDS” (TYRA BIOSCIENCES, INC., priority 2022, published 2025).
Where two headings read alike, the source gives them in different places.

How the values were obtained:
[1] = tested on: RT112/84 cell line (FGFR3-fusion); test: Cancer cell line cell viability assay (Cell Titer-Glo), 72 hr; assay type: cell-based; settings: Homo sapiens, RT112/84, RT112/84 cell line (FGFR3-fusion)
From the text: (§1) Experimental Purpose: To detect the change of intracellular ATP by Cell Titer-Glo® and to evaluate the inhibitory effect of the compounds on cancer cell lines by determining the in vitro IC50 value of the compounds.
(§2) Cell Titer-Glo® 2.0 Luminescent cell viability assay reagent was purchased from Promega (Madison, WI). KG-1, KATO-III, and MDA-MB-453 cell lines were purchased from American Type Culture Collection (Manassas, VA). RT112/84 cell line was purchased from Millipore-Sigma (St. Louis, MO). HuH7 cells were purchased from Seikisui Xenotech (Kansas City, KS). RT112/84 and MDA-MB-453 cells were cultured in RPMI1640 media supplemented with 10% fetal bovine serum. KG-1 and KATO-III cell lines were cultured in IMDM media supplemented with 20% FBS. HuH7 cells were cultured in IMDM media supplemented with 10% FBS. Cultures were maintained at 37° C. in a humidified atmosphere of 5% CO2 and 95% air.
(§3) Cell Viability Assay Procedure: Cells were plated in 96-well clear bottom/white plates (Corning #3903) at a range of densities depending on the optimal assay window (5,000-20,000 cells/well in […] of media), incubated overnight. The next day, test compound DMSO stock solutions were made at 10 mM and […] final concentration. Compounds were then added to cells in a 9-dose, 4-fold dilution series starting at 3 μM with an HP 300e Digital Dispenser (each dose was applied in triplicate). DMSO was backfilled to each well up to 301 nL total volume of test compound+DMSO, and a total of 301 nL DMSO was added to a control/no test compound well in triplicate. The cells in cell culture plates were incubated with the compounds at 37° C. and 5% CO2 for 72 hours-120 hours depending on the cell line. Then 50 μl of Cell Titer Glo 2.0 reagent was added to each well of the cell culture plates. The contents were covered from light and mixed on an orbital shaker at room temperature for minimum of 10 min. Luminescence was recorded by a Clariostar Plus Microplate Reader (BMG Labtech, Cary, NC). Cells were assessed as a percentage of DMSO only treated control cells. Curves were plotted and IC50 values were calculated using the GraphPad Prism 9 program based on a sigmoidal dose-response equation (log (inhibitor) vs. response—Variable slope, 4-parameter).

[2] = tested on: KG-1 cell line (FGFR 1-fusion); test: as above; assay type: cell-based; settings: Homo sapiens, KG-1, KG-1 cell line (FGFR1-fusion)
From the text: as §1, §2, §3

[3] = tested on: KATO-III cell line (FGFR2 amplification); test: as above; assay type: cell-based; settings: Homo sapiens, KATO III
From the text: as §1, §2, §3

FGFR1 = biological target: T1, FGFR1 (Homo sapiens, UniProt P11362); test: Kinase binding assay (kinase-tagged T7 phage, affinity beads, qPCR), Kd; settings: read-out: FGFR1 (Kd nM)
T1 construct: made in house; host or cells: E. coli (BL21-derived), T7 phage
T1 sequence (P11362 22-822): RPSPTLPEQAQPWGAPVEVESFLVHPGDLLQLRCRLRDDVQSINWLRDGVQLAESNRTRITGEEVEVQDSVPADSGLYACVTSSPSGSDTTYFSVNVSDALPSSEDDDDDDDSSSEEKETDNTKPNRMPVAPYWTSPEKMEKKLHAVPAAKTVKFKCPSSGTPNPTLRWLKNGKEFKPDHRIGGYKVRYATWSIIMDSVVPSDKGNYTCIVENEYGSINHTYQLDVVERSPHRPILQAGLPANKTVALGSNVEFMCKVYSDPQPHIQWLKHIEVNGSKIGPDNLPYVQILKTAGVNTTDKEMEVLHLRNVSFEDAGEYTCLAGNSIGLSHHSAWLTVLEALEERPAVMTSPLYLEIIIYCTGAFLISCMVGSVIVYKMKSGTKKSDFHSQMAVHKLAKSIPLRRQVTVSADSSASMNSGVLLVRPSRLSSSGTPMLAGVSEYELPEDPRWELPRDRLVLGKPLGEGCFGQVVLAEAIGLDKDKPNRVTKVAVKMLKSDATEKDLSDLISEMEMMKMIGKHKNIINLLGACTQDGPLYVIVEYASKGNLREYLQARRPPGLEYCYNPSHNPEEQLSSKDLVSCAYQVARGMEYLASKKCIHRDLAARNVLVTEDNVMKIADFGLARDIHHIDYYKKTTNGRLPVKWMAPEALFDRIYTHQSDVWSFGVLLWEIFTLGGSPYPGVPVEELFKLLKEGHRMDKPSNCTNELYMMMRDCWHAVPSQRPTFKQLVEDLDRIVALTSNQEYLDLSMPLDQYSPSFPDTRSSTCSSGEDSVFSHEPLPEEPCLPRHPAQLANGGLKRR
Summary of the method: (§4)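 Competition binding; kinase-tagged T7 phage lysate vs immobilised biotinylated ligand on streptavidin beads, 0.9% DMSO final. 11-pt 3-fold dilutions, 3 DMSO controls. qPCR of eluted kinase; Kd by Hill fit, slope −1.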

FGFR3 = biological target: T2, FGFR3 (Homo sapiens, UniProt P22607); test: as above; settings: read-out: FGFR3 (Kd nM)
T2 construct: made in house; host or cells: E. coli (BL21-derived), T7 phage
T2 sequence (P22607 23-806): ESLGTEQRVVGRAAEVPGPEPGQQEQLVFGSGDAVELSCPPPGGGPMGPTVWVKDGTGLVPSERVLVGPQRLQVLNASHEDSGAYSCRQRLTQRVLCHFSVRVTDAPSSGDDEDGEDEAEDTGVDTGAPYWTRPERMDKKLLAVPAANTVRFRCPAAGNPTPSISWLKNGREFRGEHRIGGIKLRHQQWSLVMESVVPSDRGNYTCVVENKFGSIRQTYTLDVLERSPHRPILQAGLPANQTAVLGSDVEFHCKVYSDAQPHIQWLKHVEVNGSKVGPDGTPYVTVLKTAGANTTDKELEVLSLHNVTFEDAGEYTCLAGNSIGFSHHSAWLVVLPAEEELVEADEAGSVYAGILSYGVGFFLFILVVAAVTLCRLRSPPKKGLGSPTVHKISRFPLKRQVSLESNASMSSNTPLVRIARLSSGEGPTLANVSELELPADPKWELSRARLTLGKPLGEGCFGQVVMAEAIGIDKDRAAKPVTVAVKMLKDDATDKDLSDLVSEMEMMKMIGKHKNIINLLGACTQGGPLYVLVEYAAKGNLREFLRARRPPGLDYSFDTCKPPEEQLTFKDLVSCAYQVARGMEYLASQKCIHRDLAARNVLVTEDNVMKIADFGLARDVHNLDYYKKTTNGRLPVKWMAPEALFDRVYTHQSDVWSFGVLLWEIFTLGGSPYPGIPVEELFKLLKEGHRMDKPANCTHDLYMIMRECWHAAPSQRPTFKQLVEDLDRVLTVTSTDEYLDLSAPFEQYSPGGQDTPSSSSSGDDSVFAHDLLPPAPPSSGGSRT
Summary of the method: as §4

[4] = kinase binding assay, 11-point 3-fold dilution series

Structure (SMILES)	IC50 [1] [nM]	IC50 [2] [nM]	IC50 [3] [nM]	Kd (FGFR1) [nM]	Kd (FGFR3) [nM]	Kd (FGFR1; [4]) [nM]	Kd (FGFR3; [4]) [nM]
C[C@@H](Oc1ccc2[nH]nc(-c3cnc(N4CC(C)(NCCF)C4)c(F)c3)c2c1)c1c(Cl)cncc1Cl [Example 303, (R)-1-(5-(5-(1-(3,5-dichloropyridin-4-yl)ethoxy)-1H-indazol-3-y1)-3-fluoropyridin-2-yl)-N-(2-fluoroethyl)-3-methylazetidin-3-amine]	0.1 to 50	50 to 200	0.1 to 50	1 to 50	1 to 50		
COc1cc2[nH]nc(-c3cnc(N4CC(C)(N)C4)c(F)c3)c2cc1O[C@H](C)c1c(Cl)cncc1Cl [Example 304, (R)-1-(5-(5-(1-(3,5-dichloropyridin-4-yl)ethoxy)-6-methoxy-1H-indazol-3-yl)-3-fluoropyridin-2-yl)-3-methylazetidin-3-amine]	0.1 to 50	50 to 200	0.1 to 50	1 to 50	1 to 50		
C[C@@H](Oc1ccc2[nH]nc(-c3ccc(N4CC(C)(NCC(=O)N(C)C)C4)nn3)c2c1)c1c(Cl)cncc1Cl [Example 314, (R)-2-((1-(6-(5-(1-(3,5-dichloropyridin-4-yl)ethoxy)-1H-indazol-3-yl)pyridazin-3-yl)-3-methylazetidin-3-yl)amino)-N,N-dimethylacetamide]	0.1 to 50	200 to 1000	50 to 200	1 to 50	1 to 50		
C[C@H](O)CC1(N)CN(c2ncc(-c3n[nH]c4ccc(O[C@H](C)c5c(Cl)cncc5Cl)cc34)cc2F)C1 [Example 384, (S)-1-(3-amino-1-(5-(5-((R)-1-(3,5-dichloropyridin-4-yl)ethoxy)-1H-indazol-3-yl)-3-fluoropyridin-2-yl)azetidin-3-yl)propan-2-ol]	0.1 to 50	50 to 200	50 to 200			1 to 50	1 to 50
C[C@@H](Oc1ccc2[nH]nc(-c3ccc(N4CCC(N)(CS(C)(=O)=O)CC4)nn3)c2c1)c1c(Cl)cncc1Cl [Example 386, (R)-1-(6-(5-(1-(3,5-dichloropyridin-4-yl)ethoxy)-1H-indazol-3-yl)pyridazin-3-yl)-4-((methylsulfonyl)methyl)piperidin-4-amine]	0.1 to 50	50 to 200	0.1 to 50			1 to 50	1 to 50
C[C@@H](Oc1ccc2[nH]nc(-c3ccc(N4CC(N)(c5ccn(C)n5)C4)nn3)c2c1)c1c(Cl)cncc1Cl [Example 388, (R)-1-(6-(5-(1-(3,5-dichloropyridin-4-yl)ethoxy)-1H-indazol-3-yl)pyridazin-3-yl)-3-(1-methyl-1H-pyrazol-3-yl)azetidin-3-amine]	0.1 to 50	200 to 1000	50 to 200			1 to 50	1 to 50
CCOCC1(N)CN(c2ncc(-c3n[nH]c4ccc(O[C@H](C)c5c(Cl)cncc5Cl)cc34)cc2F)C1 [Example 390, 1-[5-[5-[(1R)-1-(3,5-dichloro-4-pyridyl)ethoxy]-1H-indazol-3-yl]-3-fluoro-2-pyridyl]-3-(ethoxymethyl)azeti-din-3-amine]	0.1 to 50	50 to 200	0.1 to 50			1 to 50	1 to 50
C[C@@H](Oc1ccc2[nH]nc(-c3ccc(N4CC(N)(c5ccnn5C)C4)nn3)c2c1)c1c(Cl)cncc1Cl [Example 391, (R)-1-(6-(5-(1-(3,5-dichloropyridin-4-yl)ethoxy)-1H-indazol-3-yl)pyridazin-3-yl)-3-(1-methyl-1H-pyrazol-5-yl)azetidin-3-amine]	0.1 to 50	50 to 200	0.1 to 50			1 to 50	1 to 50
C[C@@H](Oc1ccc2[nH]nc(-c3cnc(N4CC(N)(c5ccnn5C)C4)c(F)c3)c2c1)c1c(Cl)cncc1Cl [Example 392, (R)-1-(5-(5-(1-(3,5-dichloropyridin-4-yl)ethoxy)-1H-indazol-3-yl)-3-fluoropyridin-2-yl)-3-(1-methyl-1H-pyrazol-5-yl)azetidin-3-amine]	0.1 to 50	50 to 200	0.1 to 50			1 to 50	1 to 50

Next, values leading:

IC50 [1] [nM]	IC50 [2] [nM]	IC50 [3] [nM]	Kd (FGFR1) [nM]	Kd (FGFR3) [nM]	Kd (FGFR1; [4]) [nM]	Kd (FGFR3; [4]) [nM]	Structure (SMILES)
0.1 to 50	50 to 200	0.1 to 50	1 to 50	1 to 50			C[C@@H](Oc1ccc2[nH]nc(-c3ccc(N4CC(N)(C(=O)N(C)C)C4)nn3)c2c1)c1c(Cl)cncc1Cl [Example 301, (R)-3-Amino-1-(6-(5-(1-(3,5-dichloropyridin-4-yl)ethoxy)-1H-indazol-3-yl)pyridazin-3-yl)-N,N-dimethylazetidine-3-carboxamide]
0.1 to 50	200 to 1000	50 to 200	1 to 50	1 to 50			C[C@@H](Oc1ccc2[nH]nc(-c3ccc(N4CC(N)(Cc5ccn(C)n5)C4)nn3)c2c1)c1c(Cl)cncc1Cl [Example 306, (R)-1-(6-(5-(1-(3,5-dichloropyridin-4-yl)ethoxy)-1H-indazol-3-yl)pyridazin-3-yl)-3-((1-methyl-1H-pyrazol-3-yl)methyl)azetidin-3-amine]
0.1 to 50	200 to 1000	50 to 200	1 to 50	1 to 50			CC(C)OC(=O)C1(N)CN(c2ccc(-c3n[nH]c4ccc(O[C@H](C)c5c(Cl)cncc5Cl)cc34)nn2)C1 [Example 308, (R)-isopropyl 3-amino-1-(6-(5-(1-(3,5-dichloropyridin-4-yl)ethoxy)-1H-indazol-3-yl)pyridazin-3-yl)azetidine-3-carboxylate]
0.1 to 50	50 to 200	50 to 200	1 to 50	1 to 50			CCOCC1(N)CN(c2ccc(-c3n[nH]c4ccc(O[C@H](C)c5c(Cl)cncc5Cl)cc34)nn2)C1 [Example 316, (R)-1-(6-(5-(1-(3,5-dichloropyridin-4-yl)ethoxy)-1H-indazol-3-yl)pyridazin-3-yl)-3-(ethoxymethyl)azeti-din-3-amine]
0.1 to 50	200 to 1000	50 to 200	1 to 50	1 to 50			COCC1(N)CN(c2ccc(-c3n[nH]c4ccc(O[C@H](C)c5c(Cl)cncc5Cl)cc34)nn2)C1 [Example 376, (R)-1-(6-(5-(1-(3,5-dichloropyridin-4-yl)ethoxy)-1H-indazol-3-yl)pyridazin-3-yl)-3-(methoxy-methyl)aze-tidin-3-amine]
0.1 to 50	200 to 1000	50 to 200	1 to 50	1 to 50			CC(C)OCC1(N)CN(c2ccc(-c3n[nH]c4ccc(O[C@H](C)c5c(Cl)cncc5Cl)cc34)nn2)C1 [Example 377, (R)-1-(6-(5-(1-(3,5-dichloropyridin-4-yl)ethoxy)-1H-indazol-3-yl)pyridazin-3-yl)-3-(isopropoxy-methyl)a-zetidin-3-amine]
0.1 to 50	> 1000	50 to 200	1 to 50	1 to 50			CC(C)=CCC1(N)CN(c2ccc(-c3n[nH]c4ccc(O[C@H](C)c5c(Cl)cncc5Cl)cc34)nn2)C1 [Example 378, (R)-1-(6-(5-(1-(3,5-dichloropyridin-4-yl)ethoxy)-1H-indazol-3-yl)pyridazin-3-yl)-3-(3-methylbut-2-en-1-yl)azetidin-3-amine]
0.1 to 50	200 to 1000	50 to 200			1 to 50	1 to 50	C[C@@H](Oc1ccc2[nH]nc(-c3ccc(N4CC(N)(CS(C)(=O)=O)C4)nn3)c2c1)c1c(Cl)cncc1Cl [Example 387, (R)-1-(6-(5-(1-(3,5-dichloropyridin-4-yl)ethoxy)-1H-indazol-3-yl)pyridazin-3-yl)-3-((methylsulfonyl)meth-yl)azetidin-3-amine]
